Experimental data taken from PubChem BioAssay (NCI).
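Protocol summary: plate cells (96-well), add compound at 5 concentrations, incubate 48 h, interpolate endpoints linearly. Abbreviation: GI50, concentration required for 50% inhibition of growth. TGI is the concentration that stops growth completely.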

How the values were obtained:
Test in all cases: NCI anticancer screen, dose series, 48 h
DU-145 prostate = tested on: DU-145 prostate
K-562 leukemia = tested on: K-562 leukemia
KM12 colon = tested on: KM12 colon
M14 melanoma = tested on: M14 melanoma
NCI-H226 lung = tested on: NCI-H226 lung
NCI/ADR-RES ovarian = tested on: NCI/ADR-RES ovarian
OVCAR-8 ovarian = tested on: OVCAR-8 ovarian
SF-539 CNS = tested on: SF-539 CNS
SN12C renal = tested on: SN12C renal
U251 CNS = tested on: U251 CNS

Compound	GI50 (DU-145 prostate)	TGI (DU-145 prostate)	TGI (K-562 leukemia)	GI50 (KM12 colon)	TGI (KM12 colon)	GI50 (M14 melanoma)	TGI (M14 melanoma)	GI50 (NCI-H226 lung)	TGI (NCI-H226 lung)	GI50 (NCI/ADR-RES ovarian)	TGI (NCI/ADR-RES ovarian)	GI50 (OVCAR-8 ovarian)	TGI (OVCAR-8 ovarian)	GI50 (SF-539 CNS)	TGI (SF-539 CNS)	GI50 (SN12C renal)	TGI (SN12C renal)	GI50 (U251 CNS)	TGI (U251 CNS)	GI50 (K-562 leukemia)
Cc1ncc(NC(=O)c2ccc(CN3CCN(C)CC3)c(C(F)(F)F)c2)cc1Nc1nccc(-c2cccnc2)n1	16.7 µM	30.4 µM	> 100 µM	15.3 µM	30.2 µM	10.2 µM	22.7 µM	19.5 µM	39.7 µM	17.8 µM	34.8 µM	16.8 µM	31.6 µM	11.8 µM	24.4 µM	14.4 µM	28.9 µM	15.9 µM	29.9 µM	
CN1CCN(Cc2ccc(NC(=O)c3ccc(C(C)(C)C)c(C#Cc4cnc5cccnn45)c3)cc2C(F)(F)F)CC1	1.89 µM	3.39 µM	2.6 µM	0.861 µM	2.38 µM	1.8 µM	3.44 µM	4.63 µM	20.1 µM	2.34 µM	5.86 µM	2.58 µM	5.61 µM	2.03 µM	4.14 µM	9.62 µM	26.4 µM	1.97 µM	3.62 µM	0.932 µM
COC(=O)C(Cc1ccccc1)N/C=C\C(=O)c1ccc(Cl)cc1 (centres undefined)	31.5 µM	> 100 µM	> 100 µM	21.2 µM	47.1 µM	19.1 µM	44.7 µM	26 µM	77.3 µM	19.7 µM	50.4 µM	35.3 µM	88.9 µM	18.6 µM	45.1 µM	16.7 µM	40.5 µM	22 µM	51.7 µM	54.7 µM
C=CC(=O)N1CCN(c2ncnc3c(F)c(-c4c(O)cccc4F)c(Cl)cc23)CC1	10.6 µM	23.6 µM	> 100 µM	11.7 µM	28 µM	12.6 µM	28.9 µM	17 µM	46.2 µM	22.1 µM	76.1 µM	19.3 µM	67 µM	7.48 µM	20.5 µM	13.9 µM	31.3 µM	13.2 µM	46.8 µM	21.2 µM
CNc1nc(NC2CCCC2)nc(Sc2ccc(OC)cc2)n1	> 10 µM	> 10 µM	> 10 µM	> 10 µM	> 10 µM	> 10 µM	> 10 µM	> 10 µM	> 10 µM	> 10 µM	> 10 µM	> 10 µM	> 10 µM	> 10 µM	> 10 µM	> 10 µM	> 10 µM	> 10 µM	> 10 µM	> 10 µM
N#Cc1c(-c2ccccc2)nc2c(c(-c3ccccc3)nn2-c2ccccc2)c1-c1ccc(O)cc1	2.62 µM	8.53 µM	> 100 µM	2.02 µM	4.76 µM	2.27 µM	5.48 µM	1.97 µM	4.51 µM	2.27 µM	5.62 µM	3.14 µM	11.7 µM	1.25 µM	2.76 µM	1.64 µM	3.04 µM	1.63 µM	3.97 µM	2.68 µM
Cc1ccc(C(=O)CC(Sc2cccc(Cl)c2Cl)c2ccc(Cl)cc2)cc1C (centres undefined)	16.1 µM	34.9 µM	> 100 µM	15.4 µM	34.1 µM	26.7 µM	65.1 µM	20.5 µM	37.4 µM	23.3 µM	48.9 µM	24.6 µM	74 µM	22.8 µM	53.6 µM	16.1 µM	32.7 µM	11.5 µM	25.8 µM	27.2 µM
CCN(CCO)CCNc1ccc(C)c2sc3cc(Cl)ccc3c(=O)c12	1.57 µM	2.94 µM	1.42 µM	1.67 µM	3.36 µM	1.64 µM	3.23 µM	1.39 µM	3.12 µM	1.49 µM	3.11 µM	1.78 µM	3.38 µM	1.73 µM	3.43 µM	1.47 µM	3.11 µM	1.4 µM	2.79 µM	0.32 µM
CCCCCCNc1nc(NCCCCCC)c2[nH]c(NCCCCCC)nc2n1	12.8 µM	25.4 µM	25.1 µM	8.01 µM	21.1 µM	14.1 µM	27.9 µM	15.4 µM	34.3 µM	64.5 µM	> 100 µM	9.96 µM	30.8 µM	7.39 µM	21.1 µM	3.75 µM	17.6 µM	2.18 µM	8.98 µM	7.02 µM
C=C1C(=O)O[C@H]2[C@H]1CC/C(COC(=O)c1cc3cc(OC)ccc3[nH]1)=C\CC[C@@]1(C)O[C@@H]21	1.03 µM	2.19 µM	10.8 µM	1.54 µM	3.33 µM	1.27 µM	2.98 µM	1.57 µM	3.94 µM	1.68 µM	4.9 µM	1.58 µM	3.37 µM	1.02 µM	2.25 µM	1.77 µM	3.52 µM	1.6 µM	2.95 µM	0.562 µM
COc1ccc(C2C(C#N)=C(N)OC3=C2CCCc2ccc(F)cc23)cc1OC (centres undefined)	19.1 µM	36.9 µM	> 100 µM	19.1 µM	43.6 µM	19.9 µM	41.8 µM	19.6 µM	43.9 µM	16.6 µM	43.9 µM	21.4 µM	53.5 µM	16.6 µM	32.2 µM	19.7 µM	39.5 µM	17 µM	35.9 µM	26.6 µM
COc1cc2c3c(n(CCCN4CCC(N)CC4)c(=O)c2cc1OC)-c1cc2c(cc1C3=O)OCO2	0.14 µM	0.803 µM	6.91 µM	0.619 µM	1.59 µM	1.34 µM	5.23 µM	0.757 µM	2.95 µM	2.93 µM	20.8 µM	0.368 µM	1.51 µM	0.254 µM	0.863 µM	0.338 µM	1.08 µM	0.307 µM	0.945 µM	0.587 µM
CS(=O)(=O)Nc1ccc(-c2ccc3c(NC(=O)C4CC4)n[nH]c3c2)cc1	> 23.8 µM	> 25 µM	> 25 µM	> 16.2 µM	> 25 µM	24.9 µM	> 25 µM	> 14.9 µM	> 25 µM	> 25 µM	> 25 µM	> 25 µM	> 25 µM	> 20 µM	> 25 µM	> 25 µM	> 25 µM	> 25 µM	> 25 µM	13.3 µM
CCCCCC(=O)Oc1ccc(/C(=C(\C)c2ccc(OC)cc2)c2ccc(OCCN3CCCCC3)cc2)cc1	13.5 µM	26.6 µM	16.2 µM	8.83 µM	27 µM	2.02 µM	4.37 µM	17.3 µM	38.4 µM	11 µM	26.1 µM	12.8 µM	29.6 µM	3.56 µM	14 µM	10.8 µM	23.5 µM	5.13 µM	17.6 µM	3.16 µM
